This is an account of results in ChEMBL document CHEMBL1201862, “PubChem BioAssay data set” (2004).

Activity calls are given as the source filed them. For most assays here, no stated cut-off is given here; in the data, actives have a measured EC50 and inactives only a lower limit.

Assay [1] addresses T1, RNA-binding protein pos-1 (Caenorhabditis elegans, UniProt G5EF15).
T1 sequence (G5EF15 whole entry): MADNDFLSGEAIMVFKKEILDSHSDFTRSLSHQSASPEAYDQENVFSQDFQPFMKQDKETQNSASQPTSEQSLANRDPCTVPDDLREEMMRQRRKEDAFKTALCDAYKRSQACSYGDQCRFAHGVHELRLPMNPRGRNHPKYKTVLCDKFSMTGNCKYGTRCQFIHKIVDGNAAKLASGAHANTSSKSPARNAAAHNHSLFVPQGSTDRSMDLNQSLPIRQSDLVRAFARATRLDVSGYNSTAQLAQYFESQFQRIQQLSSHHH
Kind of assay: inhibitors of POS-1/mex-3 RNA binding, dose response, biochemical, fluorescence polarization (AID 1964).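 Further: purified POS-1 fused to maltose binding protein made in E. coli; potency of compounds blocking POS-1 binding to fluorescent RNA.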

In assay [2] the target is T2, Zinc finger protein mex-5 (Caenorhabditis elegans, UniProt Q9XUB2).
T2 sequence (Q9XUB2 whole entry): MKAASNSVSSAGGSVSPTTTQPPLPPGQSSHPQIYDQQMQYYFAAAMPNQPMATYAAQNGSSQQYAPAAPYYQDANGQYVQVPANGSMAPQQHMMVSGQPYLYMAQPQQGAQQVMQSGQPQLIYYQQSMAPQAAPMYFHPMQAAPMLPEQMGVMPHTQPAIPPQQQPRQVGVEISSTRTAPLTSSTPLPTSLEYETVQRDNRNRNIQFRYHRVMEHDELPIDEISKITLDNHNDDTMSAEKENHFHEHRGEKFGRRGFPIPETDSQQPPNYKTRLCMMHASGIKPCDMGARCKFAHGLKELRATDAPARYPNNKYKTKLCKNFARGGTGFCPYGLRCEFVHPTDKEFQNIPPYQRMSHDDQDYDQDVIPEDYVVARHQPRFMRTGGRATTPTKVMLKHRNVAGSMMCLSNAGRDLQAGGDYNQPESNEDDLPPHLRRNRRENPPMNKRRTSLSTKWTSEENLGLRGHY
Kind of assay: MEX-5/TCR-2 RNA interaction inhibitors, dose response, biochemical, C. elegans, fluorescence polarization (AID 1960).

The nature of assay [3]: C. albicans growth with fluconazole, confirmation, fluorescence, retest (AID 2467). It counts as functional, cell-based.
Assay [4] can be described thus: Counterscreen for AddAB inhibitors: absorbance-based bacterial cell-based high throughput dose response assay for inhibitors of bacterial viability. [Related pubchem assays (depositor defined):AID435030, AID449728, AID449731, AID488942, AID488955, AID488956]. In kind it is functional. (A counterscreen serves to expose hits that act by an unwanted route or on another target.)

For assay [5], the target named is Polyadenylate-binding protein 1 (Homo sapiens, UniProt P11940). Kind of assay: PABP1 MLLE–PAM2 interaction inhibitors, dose response, miRNA deadenylation inhibitor project, biochemical, fluorescence polarization, Cy5-PAM2 peptide, secondary (AID 602260). It counts as functional. As to conditions: read-out: IC50_Mean. (In general: Fluorescence polarisation rises when a labelled molecule tumbles more slowly, as on binding a larger partner.)
Chain of Polyadenylate-binding protein 1 (P11940 whole entry): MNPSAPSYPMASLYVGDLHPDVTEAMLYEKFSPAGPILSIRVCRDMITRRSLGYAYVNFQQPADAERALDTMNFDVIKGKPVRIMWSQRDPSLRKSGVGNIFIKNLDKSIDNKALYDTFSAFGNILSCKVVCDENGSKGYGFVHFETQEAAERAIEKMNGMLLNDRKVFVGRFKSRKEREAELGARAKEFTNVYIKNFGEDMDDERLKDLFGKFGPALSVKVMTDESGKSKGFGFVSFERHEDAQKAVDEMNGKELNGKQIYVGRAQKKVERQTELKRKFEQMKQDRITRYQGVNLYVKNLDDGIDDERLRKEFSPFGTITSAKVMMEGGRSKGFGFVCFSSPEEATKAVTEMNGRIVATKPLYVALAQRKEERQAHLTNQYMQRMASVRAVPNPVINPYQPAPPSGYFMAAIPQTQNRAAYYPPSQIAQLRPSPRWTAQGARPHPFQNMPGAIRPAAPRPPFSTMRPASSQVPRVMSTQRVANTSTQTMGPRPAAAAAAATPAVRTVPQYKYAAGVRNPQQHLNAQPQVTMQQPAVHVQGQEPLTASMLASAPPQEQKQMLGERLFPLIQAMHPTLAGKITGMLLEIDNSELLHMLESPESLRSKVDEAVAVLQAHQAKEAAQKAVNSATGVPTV

Usually EC50 stands for the concentration that produces a half-maximal response. Turning to `CN1CCc2cc3c(c4c2[C@H]1[C@H](O)c1ccccc1-4)OCO3`, the half-maximal effective concentration (EC50) in assay [1] is 11.9 µM (active); in assay [2] it was 8.45 µM (inconclusive); in assay [3], 2.74 µM (active). Further, the IC50 was > 119 µM (inactive) in assay [4] and > 66 µM (inactive) in assay [5].
